{"source": "PubChem BioAssay AID743298", "about": "(Broad Institute, 2014)", "note": "Several values for one entry are separate records, joined by “and”; a condition that tells them apart may be missing. Equal values may be shown once. Activity calls are given as the source filed them.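 The calls were made as follows: active = fitted AC50 at or below twice the top valid dose for that sample, signal falling; inconclusive = flat curve at 30 to 70 percent inhibition, or bad fit; inactive = the rest.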", "data": [{"test_system": "not listed separately", "assay": "cell lysis of Cryptococcus neoformans, alamar blue – dry powder, set 3, mechanism study for C. neoformans antifungal project, dose response (AID 743298)", "settings": "C. neoformans growth, alamar blue, 24 h; at 35 µM (top of the series)", "values": [{"compound": "S=c1[nH]c2cc(Cl)ccc2n1CCOc1ccccc1", "activity change, negative = inhibition": "39.6% (inactive)"}, {"compound": "Cc1ccc(C(C)C)c(OCCn2c(=S)[nH]c3cccc(C)c32)c1", "activity change, negative = inhibition": "35.3% (inactive)"}, {"compound": "c1ccc(OCCn2cnc3ccccc32)cc1", "activity change, negative = inhibition": "30.3% (inactive)"}, {"compound": "CSc1nc2ccccc2n1CCOc1cc(C)ccc1C(C)C", "activity change, negative = inhibition": "-25.9% (inactive)"}, {"compound": "Cc1cccc(OCCn2c(=S)[nH]c3c(F)cccc32)c1", "activity change, negative = inhibition": "-5.91% (inactive) and -16.2% (inactive)"}, {"compound": "COCc1nc2ccccc2n1CCOc1ccc(C(C)(C)C)cc1", "activity change, negative = inhibition": "5.49% (inactive)"}, {"compound": "Cc1ccc(C(C)C)c(OCCn2c(=S)[nH]c3cc(F)ccc32)c1", "activity change, negative = inhibition": "55% (inactive)"}, {"compound": "COc1ccccc1OCCn1c(=S)[nH]c2ccccc21", "activity change, negative = inhibition": "-19.4% (inactive)"}, {"compound": "Cc1ccc(C(C)C)c(OCCn2c(=S)[nH]c3ccc(Cl)cc32)c1", "activity change, negative = inhibition": "30.7% (inactive)"}, {"compound": "Cc1ccc(C(C)C)c(OCCn2c(=S)[nH]c3ccc(F)cc32)c1", "activity change, negative = inhibition": "44.9% (inactive)"}, {"compound": "Cc1ccc(OCCn2c(=S)[nH]c3ccccc32)c(C)c1", "activity change, negative = inhibition": "12.9% (inactive)"}, {"compound": "Cc1ccc(C(C)C)c(OCCn2c(=S)[nH]c3c(Cl)cccc32)c1", "activity change, negative = inhibition": "-22.6% (inactive)"}, {"compound": "Cc1ccc(C(C)C)c(OCCn2c(CO)nc3ccccc32)c1", "activity change, negative = inhibition": "8.72% (inactive)"}, {"compound": "Cc1cccc(OCCn2c(=S)[nH]c3cc(C(F)(F)F)ccc32)c1", "activity change, negative = inhibition": "19% (inactive)"}, {"compound": "Cc1ccc(C)c(OCCn2c(=S)[nH]c3ccccc32)c1", "activity change, negative = inhibition": "26.6% (inactive)"}, {"compound": "CC(C)c1ccccc1NCCn1c(=S)[nH]c2ccccc21", "activity change, negative = inhibition": "34.7% (inactive)"}, {"compound": "Cc1cccc(OCCn2c(=S)[nH]c3ccccc32)c1C", "activity change, negative = inhibition": "51.8% (inactive)"}, {"compound": "Cc1ccc(C(C)C)c(OCCn2c(=S)[nH]c3c(C)cccc32)c1", "activity change, negative = inhibition": "59.5% (inactive)"}, {"compound": "Cc1ccc(C(C)C)c(OCCn2c(=S)[nH]c3c(F)cccc32)c1", "activity change, negative = inhibition": "16% (inactive)"}, {"compound": "Cc1cccc(OCCn2c(=S)[nH]c3ccc(C(F)(F)F)cc32)c1", "activity change, negative = inhibition": "39.4% (inactive)"}]}, {"test_system": "C. neoformans growth, alamar blue, 24 h", "assay": "cell lysis of Cryptococcus neoformans, alamar blue – dry powder, set 3, mechanism study for C. neoformans antifungal project, dose response (AID 743298)", "settings": "not given", "values": [{"compound": "CC(C)c1ccc(OCCn2c(=S)[nH]c3ccccc32)cc1", "AC50": "5.77 µM"}, {"compound": "Cc1cccc(OCCn2c(=S)[nH]c3cc(F)ccc32)c1", "AC50": "12.1 µM and 11.7 µM"}, {"compound": "Fc1ccc2c(c1)[nH]c(=S)n2CCOc1ccccc1", "AC50": "27.5 µM and 26.8 µM"}, {"compound": "S=c1[nH]c2ccccc2n1CCOc1ccccc1Cl", "AC50": "34 µM"}, {"compound": "S=c1[nH]c2ccccc2n1CCOc1ccccc1", "AC50": "24.4 µM"}, {"compound": "CCOc1ccc(OCCn2c(=S)[nH]c3ccccc32)cc1", "AC50": "12.3 µM"}, {"compound": "COc1cccc(OCCn2c(=S)[nH]c3ccccc32)c1", "AC50": "28.8 µM"}, {"compound": "Fc1cccc(OCCn2c(=S)[nH]c3ccccc32)c1", "AC50": "25.6 µM"}, {"compound": "Cc1ccc(OCCn2cnc3ccccc32)c(C(C)C)c1", "AC50": "> 70 µM (inactive)"}, {"compound": "Fc1ccccc1OCCn1c(=S)[nH]c2ccccc21", "AC50": "23 µM"}, {"compound": "Fc1ccc2[nH]c(=S)n(CCOc3ccccc3)c2c1", "AC50": "25.2 µM"}, {"compound": "Cc1cccc(OCCn2c(=S)[nH]c3ccccc32)c1", "AC50": "21.1 µM"}, {"compound": "Cc1ccc(OCCn2c(=S)[nH]c3ccccc32)c(C(C)C)c1", "AC50": "12.3 µM and 10.4 µM"}, {"compound": "CC(C)(C)c1ccc(OCCn2c(=S)[nH]c3ccccc32)cc1", "AC50": "7.11 µM"}, {"compound": "Cc1ccc(OCCn2cnc3ccccc32)cc1", "AC50": "12 µM"}, {"compound": "Cc1ccc(C(C)C)c(OCCn2c(=S)[nH]c3cccc(F)c32)c1", "AC50": "13.9 µM"}, {"compound": "Cc1ccc(OCCn2c(=S)[nH]c3ccccc32)cc1", "AC50": "5.63 µM"}, {"compound": "Cc1ccc(C(C)C)c(OCCn2c(=S)[nH]c3ccccc32)c1", "AC50": "9.65 µM and 9.22 µM"}, {"compound": "Cc1ccc(OCCn2c(C)nc3ccccc32)cc1", "AC50": "21.9 µM"}, {"compound": "Cc1ccccc1OCCn1c(=S)[nH]c2ccccc21", "AC50": "> 70 µM (inactive)"}, {"compound": "CC(C)c1ccccc1OCCn1c(=S)[nH]c2ccccc21", "AC50": "20.1 µM"}, {"compound": "Fc1cccc2c1[nH]c(=S)n2CCOc1ccccc1", "AC50": "20 µM and 22.2 µM"}, {"compound": "Cc1ccc2c(c1)[nH]c(=S)n2CCOc1ccccc1", "AC50": "12.2 µM and 12.4 µM"}, {"compound": "O=c1[nH]c2ccccc2n1CCOc1ccccc1", "AC50": "34 µM"}, {"compound": "Cc1ccc(C(C)C)c(OCCn2c(=S)[nH]c3cccc(Cl)c32)c1", "AC50": "9.67 µM"}, {"compound": "Cc1cccc2[nH]c(=S)n(CCOc3ccccc3)c12", "AC50": "15.1 µM"}, {"compound": "S=c1[nH]c2cccc(Cl)c2n1CCOc1ccccc1", "AC50": "6.34 µM and 6.02 µM"}, {"compound": "Cc1ccc(OCCn2c(SCCO)nc3ccccc32)c(C(C)C)c1", "AC50": "26 µM"}, {"compound": "CC(C)(C)c1ccc(OCCn2cnc3ccccc32)cc1", "AC50": "17.5 µM"}, {"compound": "COc1ccc(OCCn2c(=S)[nH]c3ccccc32)cc1", "AC50": "30.3 µM"}, {"compound": "CC(C)(C)c1ccccc1OCCn1c(=S)[nH]c2ccccc21", "AC50": "11.2 µM"}, {"compound": "S=c1[nH]c2ccccc2n1CCOc1ccc(Cl)cc1", "AC50": "6.01 µM"}]}]}
